Measured values as given in US7160684B2, “Methods of selecting compounds for modulation of bladder function” (Wyeth, priority 2000, dated 2007).

Tested on: rat bladder micturition
Assay: Rat bladder cystometry, hyperreflexic bladder (0.25% acetic acid infusate)
Assay type: in vivo
Protocol: Micturition frequency is enhanced by the stimulation of sensory afferents using a dilute acetic acid solution in the cystometric infusate as previously described by Birder and de Groat (Birder L A. de Groat W C. Increased c-fos expression in spinal neurons after irritation of the lower urinary tract in the rat. J Neuroscience 12: 4878–89, (1992)). Briefly, female Sprague-Dawley rats (190–210 g) are anesthetized with urethane (lg/kg/10 mL, i. p.; 1 g/kg/10 mL, s. q.). The trachea is cannulated with PE205 to ensure a patent airway. The external jugular is cannulated with PE50 tubing for administration of compound. The bladder is exposed through a midline incision, and an angiocatheter (24 g, TEFLON), is heat flared at the end and inserted into the dome of the bladder and secured with 4-0 silk. The bladder is flushed with normal saline and allowed to equilibrate for 1 hour before cystometry is performed. Using a “T” connector, the bladder catheter is connected to a Statham pressure transducer (Model P23Db) and to a Harvard infusion pump. Cystometric recordings are monitored on a GRASS polygraph while infusing the bladder with saline containing 0.25% acetic acid at a rate of 2.4 mL/hr. for one hour. Next, compound is administered intravenously and the cystometry monitored for an additional 2 hours. The following cystometric parameters are recorded: micturition interval, micturition amplitude, micturition threshold pressure, bladder capacity, bladder compliance and the number of spontaneous bladder contractions (SBC) during the filling phase. The control period is taken as the 30 minute time period of acetic acid saline perfusion before dosing.
Rat bladder micturition frequency (enhanced by infusate containing 0.25% acetic acid (Birder, L. A., & deGroat, W., C. Increased c-fos expression in spinal neurons after irritation of the lower urinary tract in the rat. J Neurosc 12: 4878–4889 (1992))) was inhibited by retigabine in a dose-dependent (0.1–10 mg/kg, i.p.) manner. At 10 mg/kg, micturition was blocked in 100% of animals dosed; the population ED50 was 1–2 mg/kg (n=5–8). Micturition block lasted for up to 90 minutes (FIG. 4a).
Rat bladder strips were isolated and prepared as previously described (Wojdan, A., Freeden, C., Woods, M., Oshiro, G., Spinelli, W. et al., J Pharmacol ExpTherap 289:1410–1418 (1999)). Preparations were contracted with either 20 or 60 mM KCl, or 200 nM carbachol. A five minute area under the contraction curve was acquired 20 minutes after addition of each concentration of retigabine using a 12 bit D/A and a 586 based personal computer running custom software. Message for KCNQ subunits was probed using quantitative rtPCR on an ABI PRISM 7700 Sequence Detection System (TAQMAN). Forward and reverse primers and TAQMAN probes were designed using published RNA sequences for human KCNQ1–5 and rat KCNQ 1–4 listed within the NCBI data base. Since no rat sequence for KCNQ5 were currently published, probes and primers were designed by BLAST analysis of rat Expressed Sequence Tags (EST) using the known mouse KNCQ5 sequence. From homologous EST sequences, a contiguous sequence of 384 base pairs was constructed. Probes and primers were designed against this sequence. BLAST analysis of our rat KCNQ5 probes and primer were selective for mouse and human KCNQ5 sequences. PCR products were confirmed by gel electrophoresis (data not shown). Cells for electrophysiology were prepared from rat bladder smooth muscle as previously described (Wojdan et al., 1999). Human bladder smooth muscle cells were obtained from Clonetics, San Diego, Calif. Cells were removed from culture with trypsin and added directly into the recording chamber. All recordings were made at 320 C and acquired on a 586 based personal computer using pCLAMP (Axon Instruments) software. Current clamp recordings were performed with nystatin access as previously described (Wojdan et al.). […]

## CCOC(=O)Nc1ccc(NCc2ccc(F)cc2)cc1N [retigabine, N-[2-amino-4-(4-fluorobenzylamino)-phenyl]carbamic acid ethyl ester]
0.1 mg/kg, in comparison to the control
  frequency of spontaneous contractions during bladder filling: significantly reduced
1 mg/kg, i.p., p<0.05
  inhibition of spontaneous contractions: 43.5±14.1%
10 mg/kg, i.p.
  animals in which micturition was blocked: 100%
10 mg/kg, i.p., within minutes of dosing, four rats
  micturition: completely blocked
Rattus norvegicus, ip, n=5–8, read-out: population ED50 for micturition block
  ED50: 1 to 2 mg/kg
dose-dependent, 0.1–10 mg/kg, i.p.
  micturition frequency: inhibited
i.p., FIG. 4a
  duration of micturition block: up to 90 minutes
